In patent US6495578B1, “Sulfonamide derivatives having oxadiazole rings” (Shionogi & Co., Ltd., priority 1999, dated 2002):

Biological target: T1, MMP-2 (Homo sapiens, UniProt P08253)
T1 construct: purchased Calbiochem-Novabiochem International, Inc
T1 sequence (P08253 110-660): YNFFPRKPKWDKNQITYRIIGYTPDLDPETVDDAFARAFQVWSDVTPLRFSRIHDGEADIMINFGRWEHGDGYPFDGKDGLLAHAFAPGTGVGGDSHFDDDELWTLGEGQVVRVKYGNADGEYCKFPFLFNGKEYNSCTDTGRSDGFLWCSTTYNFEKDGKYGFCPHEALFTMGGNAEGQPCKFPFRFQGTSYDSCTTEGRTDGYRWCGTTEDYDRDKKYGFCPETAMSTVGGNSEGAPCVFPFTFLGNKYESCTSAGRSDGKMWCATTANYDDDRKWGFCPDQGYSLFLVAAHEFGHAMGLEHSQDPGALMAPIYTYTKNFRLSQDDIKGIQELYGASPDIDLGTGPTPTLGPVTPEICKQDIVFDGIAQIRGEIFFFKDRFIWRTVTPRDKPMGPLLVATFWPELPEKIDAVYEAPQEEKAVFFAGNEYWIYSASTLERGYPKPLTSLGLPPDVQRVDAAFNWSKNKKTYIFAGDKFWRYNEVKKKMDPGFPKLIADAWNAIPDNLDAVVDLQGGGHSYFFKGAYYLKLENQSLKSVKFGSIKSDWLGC
Experiment: Assay for inhibitory activities on MMP-2 (fluorogenic coumarin-labelled peptide substrate)
Type: biochemical
Details: MMP-2 purchased from Calbiochem-Novabiochem; substrate MOCAc-Pro-Leu-Gly-Leu-A2Pr(DNP)-Ala-Arg-NH2
Procedure: MMP-2 was purchased from Calbiochem-Novabiochem International, Inc.
The enzymatic activity on MMP-2 was analyzed by the method described in “C. Graham Knight, Frances Willenbrock and Gillian Murphy: A novel coumarin-labelled peptide for sensitive continuous assays of the matrix metalloproteinases: FEBS LETT., 296, (1992), 263-266”. The substrate: MOCAc-Pro-Leu-Gly-Leu-A2Pr(DNP)-Ala-Arg-NH2 was purchased from Peptide Institute, Inc., Osaka, Japan.
The measurement of the inhibitory activities (IC50) was carried out by the following four methods;
A) Reaction with substrate, enzyme (MMPs) and inhibitor
B) Reaction with substrate and inhibitor, without enzyme
C) Reaction with substrate and enzyme (MMPs), without inhibitor
D) Reaction with substrate only
IC50 values were calculated by using the following formula and each fluorescence values of above four methods (A to D).
IC50 means the concentration required to inhibit 50% of the enzyme activity.

Compound	IC50 [nM]
CCc1ccc(-c2nc(-c3ccc(S(=O)(=O)N[C@@H](C(=O)O)C(C)C)cc3)no2)cc1 [Compound A-3]	1.24
Cc1ccc(-c2nc(-c3ccc(S(=O)(=O)N[C@H](Cc4ccccc4)C(=O)O)cc3)no2)cc1 [Compound A-5]	6.68
CN(C)c1ccc(-c2nc(-c3ccc(S(=O)(=O)N[C@H](Cc4ccccc4)C(=O)O)cc3)no2)cc1 [Compound A-8]	11.9
CCCCc1ccc(-c2nc(-c3ccc(S(=O)(=O)N[C@H](Cc4ccccc4)C(=O)O)cc3)no2)cc1 [Compound A-9]	6.04
Cc1ccc(-c2nc(-c3ccc(S(=O)(=O)N[C@H](C)C(=O)O)cc3)no2)cc1 [Compound A-10]	9.17
C[C@@H](NS(=O)(=O)c1ccc(-c2noc(-c3ccc(Cl)cc3)n2)cc1)C(=O)O [Compound A-11]	18.6
CC(C)[C@@H](NS(=O)(=O)c1ccc(-c2noc(-c3ccccc3)n2)cc1)C(=O)O [Compound A-16]	26.4
CC(C)[C@H](NS(=O)(=O)c1ccc(-c2noc(-c3cccs3)n2)cc1)C(=O)O [Compound A-23]	339
Cc1ccc(-c2nc(-c3ccc(S(=O)(=O)N[C@@H](C(=O)O)C(C)C)cc3)no2)s1 [Compound A-24]	2.88
Cc1ccc(-c2nc(-c3ccc(S(=O)(=O)N[C@H](C(=O)O)C(C)C)cc3)no2)s1 [Compound A-25]	47.4
CC(C)[C@@H](NS(=O)(=O)c1ccc(-c2noc(-c3ccc(Cl)s3)n2)cc1)C(=O)O [Compound A-26]	6.72
O=C(O)[C@@H](Cc1ccccc1)NS(=O)(=O)c1ccc(-c2noc(-c3ccc(C4CCCCC4)cc3)n2)cc1 [Compound A-35]	14.4
Cc1cccc(-c2nc(-c3ccc(S(=O)(=O)N[C@H](Cc4ccccc4)C(=O)O)cc3)no2)c1 [Compound A-36]	38
O=C(O)[C@H](Cc1ccccc1)NS(=O)(=O)c1ccc(-c2noc(-c3ccc4c(c3)OCO4)n2)cc1 [Compound A-37]	20.2
COc1ccc(-c2nc(-c3ccc(S(=O)(=O)N[C@@H](Cc4ccccc4)C(=O)O)cc3)no2)cc1OC [Compound A-38]	506
O=C(O)[C@@H](Cc1ccccc1)NS(=O)(=O)c1ccc(-c2noc(-c3cccs3)n2)cc1 [Compound A-40]	31
Cc1ccc(-c2nc(-c3ccc(S(=O)(=O)N[C@H](Cc4ccccc4)C(=O)O)cc3)no2)s1 [Compound A-41]	5.59
C[C@@H](NS(=O)(=O)c1ccc(-c2noc(-c3ccc(F)cc3)n2)cc1)C(=O)O [Compound A-45]	31
Cc1ccc(-c2nc(-c3ccc(S(=O)(=O)N[C@@H](C)C(=O)O)cc3)no2)cc1 [Compound A-46]	458

Compound	IC50 [nM]
CCc1ccc(-c2nc(-c3ccc(S(=O)(=O)N[C@H](C)C(=O)O)cc3)no2)cc1 [Compound A-47]	4.63
CCCc1ccc(-c2nc(-c3ccc(S(=O)(=O)N[C@@H](C)C(=O)O)cc3)no2)cc1 [Compound A-49]	126
C[C@@H](NS(=O)(=O)c1ccc(-c2noc(-c3ccc([N+](=O)[O-])cc3)n2)cc1)C(=O)O [Compound A-50]	12.6
CC(=O)c1ccc(-c2nc(-c3ccc(S(=O)(=O)N[C@H](C)C(=O)O)cc3)no2)cc1 [Compound A-51]	3.21
C[C@@H](NS(=O)(=O)c1ccc(-c2noc(-c3cccs3)n2)cc1)C(=O)O [Compound A-52]	36.8
Cc1ccc(-c2nc(-c3ccc(S(=O)(=O)N[C@H](C)C(=O)O)cc3)no2)s1 [Compound A-53]	8.74
C[C@@H](NS(=O)(=O)c1ccc(-c2noc(-c3ccc(Cl)s3)n2)cc1)C(=O)O [Compound A-54]	12.4
C[C@@H](NS(=O)(=O)c1ccc(-c2noc(-c3ccsc3)n2)cc1)C(=O)O [Compound A-55]	50.3
C[C@@H](NS(=O)(=O)c1ccc(-c2noc(-c3ccco3)n2)cc1)C(=O)O [Compound A-56]	70.5
CC(C)c1ccc(-c2nc(-c3ccc(S(=O)(=O)NCC(=O)O)cc3)no2)cc1 [Compound A-60]	14.3
CCCc1ccc(-c2nc(-c3ccc(S(=O)(=O)NCC(=O)O)cc3)no2)cc1 [Compound A-61]	15.7
O=C(O)CNS(=O)(=O)c1ccc(-c2noc(-c3cccs3)n2)cc1 [Compound A-62]	196
CCc1ccc(-c2nc(-c3ccc(S(=O)(=O)N[C@H](Cc4c[nH]c5ccccc45)C(=O)O)cc3)no2)cc1 [Compound A-64]	1.39
CCCc1ccc(-c2nc(-c3ccc(S(=O)(=O)N[C@H](Cc4c[nH]c5ccccc45)C(=O)O)cc3)no2)cc1 [Compound A-65]	1.66
CC(C)C[C@@H](NS(=O)(=O)c1ccc(-c2noc(-c3ccc(Cl)cc3)n2)cc1)C(=O)O [Compound A-66]	37.6
Cc1ccc(-c2nc(-c3ccc(S(=O)(=O)N[C@@H](CC(C)C)C(=O)O)cc3)no2)cc1 [Compound A-67]	124
CCc1ccc(-c2nc(-c3ccc(S(=O)(=O)N[C@@H](C(=O)O)C(C)C)s3)no2)cc1 [Compound B-2]	5.39
O=C(O)[C@@H](Cc1ccccc1)NS(=O)(=O)c1ccc(-c2noc(-c3ccc(F)cc3)n2)s1 [Compound B-3]	223
CCc1ccc(-c2nc(-c3ccc(S(=O)(=O)N[C@H](Cc4ccccc4)C(=O)O)s3)no2)cc1 [Compound B-4]	17.8

More lines, now with the values ahead:

IC50 [nM]	Compound
5.75	CC(C)[C@@H](NS(=O)(=O)c1ccc(-c2noc(-c3ccc(Cl)cc3)n2)cc1)C(=O)O [Compound A-2]
1.23	CCCCc1ccc(-c2nc(-c3ccc(S(=O)(=O)N[C@@H](C(=O)O)C(C)C)cc3)no2)cc1 [Compound A-4]
13.9	O=C(O)[C@@H](Cc1ccccc1)NS(=O)(=O)c1ccc(-c2noc(-c3ccc(Cl)cc3)n2)cc1 [Compound A-6]
26.5	O=C(O)[C@@H](Cc1ccccc1)NS(=O)(=O)c1ccc(-c2noc(-c3ccc(F)cc3)n2)cc1 [Compound A-7]
51.6	Cc1ccc(-c2nc(-c3ccc(S(=O)(=O)NCC(=O)O)cc3)no2)cc1 [Compound A-12]
85.2	O=C(O)CNS(=O)(=O)c1ccc(-c2noc(-c3ccc(Cl)cc3)n2)cc1 [Compound A-13]
15.5	CC(C)[C@@H](NS(=O)(=O)c1ccc(-c2noc(-c3ccc(F)cc3)n2)cc1)C(=O)O [Compound A-17]
114	Cc1ccc(-c2nc(-c3ccc(S(=O)(=O)NC(C(=O)O)C(C)C)cc3)no2)cc1 (centres unmarked) [Compound A-19]
0.883	CCCc1ccc(-c2nc(-c3ccc(S(=O)(=O)NC(C(=O)O)C(C)C)cc3)no2)cc1 (centres unmarked) [Compound A-20]
126	CCCc1ccc(-c2nc(-c3ccc(S(=O)(=O)N[C@H](C(=O)O)C(C)C)cc3)no2)cc1 [Compound A-21]
40.7	CC(C)[C@@H](NS(=O)(=O)c1ccc(-c2noc(-c3cccs3)n2)cc1)C(=O)O [Compound A-22]
60.3	CC(C)[C@H](NS(=O)(=O)c1ccc(-c2noc(-c3ccc(Cl)s3)n2)cc1)C(=O)O [Compound A-27]
27.9	O=C(O)[C@@H](Cc1ccccc1)NS(=O)(=O)c1ccc(-c2noc(-c3ccccc3)n2)cc1 [Compound A-29]
39.8	Cc1ccc(-c2nc(-c3ccc(S(=O)(=O)N[C@@H](Cc4ccccc4)C(=O)O)cc3)no2)cc1 [Compound A-30]
4.98	CCc1ccc(-c2nc(-c3ccc(S(=O)(=O)N[C@H](Cc4ccccc4)C(=O)O)cc3)no2)cc1 [Compound A-31]
13.1	N#Cc1ccc(-c2nc(-c3ccc(S(=O)(=O)N[C@H](Cc4ccccc4)C(=O)O)cc3)no2)cc1 [Compound A-34]
80.7	O=C(O)[C@H](Cc1ccccc1)NS(=O)(=O)c1ccc(-c2noc(-c3ccc(Cl)c(Cl)c3)n2)cc1 [Compound A-39]
47	O=C(O)[C@@H](Cc1ccccc1)NS(=O)(=O)c1ccc(-c2noc(-c3ccco3)n2)cc1 [Compound A-42]
171	O=C(O)[C@@H](Cc1ccccc1)NS(=O)(=O)c1ccc(-c2noc(-c3cccnc3)n2)cc1 [Compound A-43]
45	C[C@@H](NS(=O)(=O)c1ccc(-c2noc(-c3ccccc3)n2)cc1)C(=O)O [Compound A-44]
1.17	CCCc1ccc(-c2nc(-c3ccc(S(=O)(=O)N[C@H](C)C(=O)O)cc3)no2)cc1 [Compound A-48]
20	CCc1ccc(-c2nc(-c3ccc(S(=O)(=O)NCC(=O)O)cc3)no2)cc1 [Compound A-59]
33.9	Cc1ccc(-c2nc(-c3ccc(S(=O)(=O)NCC(=O)O)cc3)no2)s1 [Compound A-63]
67.7	CC(C)[C@@H](NS(=O)(=O)c1ccc(-c2noc(-c3ccc(F)cc3)n2)s1)C(=O)O [Compound B-1]
